Measured values from the NIST ThermoML archive (doi:10.1021/acs.jced.7b00503).

Assays:
[1] = wn = mass fraction of the nth substance listed; conditions: Pendant drop shape
[2] = Pendant drop shape

[Br-].[K+] [potassium bromide] + O
surface tension liquid-gas [mN/m], [1]
Conditions	w1 = 0.05	w1 = 0.1	w1 = 0.15	w1 = 0.2	w1 = 0.25	w1 = 0.3	w1 = 0.35	w1 = 0.4
293.15 K	73.93	74.51	74.9	75.3	76.16	77.43	78.85	80.3
303.15 K	72.42	73.05	73.27	73.82	74.82	76.15	77.51	78.92
313.15 K	70.85	71.44	71.74	72.29	73.39	74.72	76.17	77.58
323.15 K	69.14	69.86	70.21	70.82	71.86	73.23	74.64	76.06
333.15 K	67.31	67.95	68.49	69.25	70.24	71.64	73.11	74.53
343.15 K	65.4	66.14	66.77	67.46	68.61	69.93	71.39	72.87
353.15 K	63.44	64.11	64.86	65.73	66.79	68.15	69.57	71.22

[Cl-].[K+] [potassium chloride] + O
surface tension liquid-gas [mN/m], [1]
Conditions	w1 = 0.025	w1 = 0.05	w1 = 0.075	w1 = 0.1	w1 = 0.125	w1 = 0.15	w1 = 0.175	w1 = 0.2
293.15 K	73.32	73.89	74.52	75.13	75.61	76.15	77.1	77.99
303.15 K	71.83	72.44	73.09	73.68	74.44	75.18	75.74	76.32
313.15 K	70.27	71.05	71.66	72.24	72.88	73.56	74.18	74.82
323.15 K	68.58	69.17	69.84	70.49	71.12	71.74	72.36	73
333.15 K	66.95	67.7	68.21	68.76	69.37	69.83	70.47	71.1
343.15 K	65	65.55	66.46	67.35	67.94	68.47	69.17	69.81
353.15 K	63.25	63.91	64.64	65.37	66.05	66.73	67.35	68.12

O [water] + [Cl-].[K+]
[1], w2 = 0
Conditions	surface tension liquid-gas [mN/m]
293.15 K	72.75
303.15 K	71.15
313.15 K	69.55
323.15 K	67.9
333.15 K	66.17
343.15 K	64.39
353.15 K	62.61

O [water]
[2]
Conditions	surface tension liquid-gas [mN/m]
293.15 K	72.75
298.15 K	71.97
303.15 K	71.15
313.15 K	69.55
323.15 K	67.9
333.15 K	66.17
343.15 K	64.39
353.15 K	62.61
